Experimental findings from ChEMBL document CHEMBL3792309, “Seeking potent anti-tubercular agents: Design, synthesis, anti-tubercular activity and docking study of various ((triazoles/indole)-piperazin-1-yl/1,4-diazepan-1-yl)benzo[d]isoxazole derivatives” (Bioorg Med Chem Lett, 2016) are described below.

Values after ≈ are worked out from the molar mass of the structure shown.

By MIC is commonly meant the least concentration at which growth counts as inhibited. A lower MIC goes with a more susceptible organism.

This assay deals with Mycobacterium tuberculosis. Put plainly: Antimicrobial activity against p-aminosalicylic acid/isonicotinic acid hydrazide/etambutol/rifampicin resistant Mycobacterium tuberculosis Spec. 210 by classical test tube method. Type of assay: functional.

Regarding `Fc1ccc(-n2cc(CN3CCN(c4noc5ccccc45)CC3)nn2)cc1`, the MIC turned out to be 132 µM (≈ 50 µg/mL).
`O=C(Cc1c[nH]c2ccccc12)N1CCCN(c2noc3ccccc23)CC1` had an MIC of 134 µM (≈ 50 µg/mL).
With `C#CCN1CCN(c2noc3ccccc23)CC1`, the MIC was > 200 µM.
As to `CCc1ccc(-n2cc(CN3CCN(c4noc5cc(Cl)ccc45)CC3)nn2)cc1`, the MIC is > 200 µM.
On to `CCc1ccc(-n2cc(CN3CCN(c4noc5ccccc45)CC3)nn2)cc1`, for which the MIC was > 200 µM.
`O=C(CCc1c[nH]c2ccccc12)N1CCN(c2noc3ccccc23)CC1`: the MIC was > 200 µM.
`O=C(CCc1c[nH]c2ccccc12)N1CCCN(c2noc3ccccc23)CC1`: the minimum inhibitory concentration (MIC) is > 200 µM.
The same measure for `Fc1ccc(-n2cc(CN3CCCN(c4noc5ccccc45)CC3)nn2)cc1`: 127 µM (≈ 50 µg/mL); for `Clc1ccc2c(N3CCN(Cc4cn(-c5ccc(Br)cc5)nn4)CC3)noc2c1`: > 200 µM.
Regarding `Clc1ccc(-n2cc(CN3CCN(c4noc5ccccc45)CC3)nn2)cc1`, the MIC was > 200 µM.
As for `C#CCN1CCN(c2noc3cc(Cl)ccc23)CC1`, the MIC is > 200 µM.
For the compound `O=C(CCCc1c[nH]c2ccccc12)N1CCN(c2noc3cc(Cl)ccc23)CC1`, the MIC is > 200 µM.
The same measure for `FC(F)(F)c1cccc(-n2cc(CN3CCN(c4noc5ccccc45)CC3)nn2)c1`: 29.2 µM (≈ 12.5 µg/mL); for `O=C(CCCc1c[nH]c2ccccc12)N1CCN(c2noc3ccccc23)CC1`: > 200 µM.
The same measure for `C#CCN1CCCN(c2noc3ccccc23)CC1`: 196 µM (≈ 50 µg/mL); for `CCc1ccc(-n2cc(CN3CCCN(c4noc5ccccc45)CC3)nn2)cc1`: > 200 µM.
For `Brc1ccc(-n2cc(CN3CCCN(c4noc5ccccc45)CC3)nn2)cc1`, the MIC was > 200 µM.
`COc1cccc(-n2cc(CN3CCN(c4noc5ccccc45)CC3)nn2)c1` returned an MIC of 128 µM (≈ 50 µg/mL).
As to `Clc1ccc(-n2cc(CN3CCN(c4noc5cc(Cl)ccc45)CC3)nn2)cc1`, the MIC is > 200 µM.
`Clc1cccc(-n2cc(CN3CCCN(c4noc5ccccc45)CC3)nn2)c1` had an MIC of 122 µM (≈ 50.1 µg/mL).
Regarding `O=C(Cc1c[nH]c2ccccc12)N1CCN(c2noc3ccccc23)CC1`, the MIC was > 200 µM.
As to `COc1cccc(-n2cc(CN3CCCN(c4noc5ccccc45)CC3)nn2)c1`, the MIC was > 200 µM.
On to `O=[N+]([O-])c1ccc(-n2cc(CN3CCN(c4noc5cc(Cl)ccc45)CC3)nn2)cc1`, for which the MIC is > 200 µM.
The same measure for `FC(F)(F)c1cc(-n2cc(CN3CCCN(c4noc5ccccc45)CC3)nn2)ccc1Br`: 24 µM (≈ 12.5 µg/mL); for `Clc1cccc(-n2cc(CN3CCN(c4noc5ccccc45)CC3)nn2)c1`: 63.4 µM (≈ 25 µg/mL).
As to `O=C(CCCc1c[nH]c2ccccc12)N1CCCN(c2noc3ccccc23)CC1`, the MIC was > 200 µM.
Consider `COc1ccc(-n2cc(CN3CCN(c4noc5ccccc45)CC3)nn2)cc1`, for which the MIC is > 200 µM.
Compound `NNC(=O)c1ccncc1` [ISONIAZID] gave an MIC of 91.1 µM (≈ 12.5 µg/mL). In other words, the double-digit micromolar range.
As for `Brc1ccc(-n2cc(CN3CCN(c4noc5ccccc45)CC3)nn2)cc1`, the MIC was > 200 µM.
The same measure for `O=C(CCc1c[nH]c2ccccc12)N1CCN(c2noc3cc(Cl)ccc23)CC1`: > 200 µM; for `O=[N+]([O-])c1ccc(-n2cc(CN3CCCN(c4noc5ccccc45)CC3)nn2)cc1`: > 200 µM.
On to `O=[N+]([O-])c1ccc(-n2cc(CN3CCN(c4noc5ccccc45)CC3)nn2)cc1`, for which the MIC was > 200 µM.
Turning to `FC(F)(F)c1cccc(-n2cc(CN3CCCN(c4noc5ccccc45)CC3)nn2)c1`, inhibition of growth (MIC) required 28.3 µM (≈ 12.5 µg/mL).
The same measure for `COc1ccc(-n2cc(CN3CCN(c4noc5cc(Cl)ccc45)CC3)nn2)cc1`: 118 µM (≈ 50.1 µg/mL).
The same measure for `FC(F)(F)c1cc(-n2cc(CN3CCN(c4noc5ccccc45)CC3)nn2)ccc1Br`: 6.16 µM (≈ 3.13 µg/mL); for `COc1ccc(-n2cc(CN3CCCN(c4noc5ccccc45)CC3)nn2)cc1`: > 200 µM; for `Clc1ccc(-n2cc(CN3CCCN(c4noc5ccccc45)CC3)nn2)cc1`: > 200 µM.
The compound `Fc1ccc(-n2cc(CN3CCN(c4noc5cc(Cl)ccc45)CC3)nn2)cc1` showed a minimum inhibitory concentration (MIC) of 121 µM (≈ 50.1 µg/mL).
The same measure for `O=C(Cc1c[nH]c2ccccc12)N1CCN(c2noc3cc(Cl)ccc23)CC1`: 127 µM (≈ 50.1 µg/mL).
